In data set [1] the test system is human malignant mesothelioma cell line LO68. Briefly: MTT cytotoxicity assay, 72 h, LO68. The data set is classed as cell-based. To be noted: exposure time 72 h.
Data set [2] concerns M0-differentiated THP-1 cells. Briefly: MTT-based viability assay on M0-differentiated THP-1 cells, 72 h. The data set is classed as cell-based, human. To be noted: 72-h exposure, compared with AB12 cells. As for the experimental part:
incubated for an additional 50 min. Subsequently, the medium was aspirated, and the purple formazan crystals formed in viable cells were dissolved in DMSO (100 μL/well). Optical densities were measured at 570 nm using a BioTek Synergy H1 microplate and MultiskanTM SkyHigh plate readers. The quantity of viable cells was expressed in terms of treated/control (T/C) values in comparison to untreated control cells, and 50% inhibitory concentrations (IC 50) were calculated from concentration-effect curves by interpolation. An evaluation was based on means from at least three independent experiments, each comprising three replicat es per […]
For macrophage analyses, the acute monocytic leukemia -derived THP-1 cell line (ATCC) was used as a model. 1 × 104 THP-1 cells were seeded per well in 96-well plates in RPMI-1640 with 10% FCS and treated for 24 h with 75 nM phorbol 12-myristate 13-acetate (PMA, Sigma-Aldrich) to induce M0 macrophage differentiation. After the differentiation period, PMA was replaced by fresh culture medium to recover for 2h. Afterwards increasing concentrations of 1G, 5A, 5B and 5G were added for a 72-h continuous drug exposure assay. In parallel, the murine mesothelioma cell line AB12 was seeded into 96 -well plates at 2.5 × 10^3 cells/well and were allowed to attach for 24 h. Gold compounds were added to the cells as described for the THP-1 model above. After the incubation period of 72 h, cell viability was determined by an MTT-based assay (EU4U, Biomedica) following the instructions of the manufacturer. DMSO had not impact on the cell viability at the concentrations used. […]

Data set [3] deals with patient-derived VMC23 cell line (epithelioid MPM). In words: MTT cytotoxicity assay, 72 h, VMC23. The data set is classed as cell-based, human. As to conditions: exposure time 72 h. (Tetrazolium assays rely on reduction of a dye to a coloured formazan, in cell work by metabolically active cells.)
In data set [4] the test system is patient-derived Meso84 cell line (sarcomatoid MPM). Briefly: MTT cytotoxicity assay, 72 h, Meso84. Format: cell-based, human. To be noted: exposure time 72 h.
For data set [5], the system named is murine malignant mesothelioma cell line AB12. In words: MTT cytotoxicity assay, 72 h, AB12. To be noted: exposure time 72 h. The data set is classed as cell-based, mouse.
From the text: (§1) Human malignant mesothelioma cancer cell lines JU77 and LO68 were obtained from Cell Bank Australia (Children's Medical Research Institute, Westmead, Australia). Mouse malignant mesothelioma cancer cell line AB12, human nonmalignant mesothelioma cancer cell line Met5A (mesothelial cells), mouse macrophage cell line J774 and human monocytic cell line THP-1 were obtained from American Type Culture Collection (ATCC) (Rockville, MD, USA). Human malignant mesothelioma cell lines VMC23 (epithelial), Meso82 (sarcomatous), Meso92 (biphasic), were kindly provided by Prof. Walter Berger (Medical University of Vienna). All cells except for J774 were cultured in RPMI and J774 cells were cultured in DMEM. Both types of media were supplemented with 10% FBS and 1% penicillin-streptomycin (10,000 U/mL). Cells were grown in tissue culture flasks (75 cm2 and 25 cm2, SPL Life Sciences Co., Ltd., Korea). All cell lines were grown at 37 °C in a humidified atmosphere of 95% air and 5% CO 2 and passaged when they reached 80–90% confluency. All Au stock solutions were prepared in 1% DMSO in the respected medium, ensuring that cell viability was not inhibited.
(§2) The cytotoxicity of compounds was determined using an MTT colorimetric test. The cells were harvested from culture flasks by trypsinization and seeded into Cellstar 96 -well microculture plates (Greiner Bio -One) at the seeding density of 6000 cells per well (6 × 10^4 cells/mL). After
(§3) the cells were allowed to resume exponential growth for 16 h, they were exposed to drugs at
(§4) different concentrations in media for 72 h. The drugs were diluted in a complete medium at the desired concentration added to each well (100 μL) and serially diluted in other wells. After exposure for 72 h, the media was replaced with MTT in media (5 mg/mL, 100 μL/well) and
In data set [6] the test system is patient-derived Meso92 cell line (biphasic MPM). Briefly: MTT cytotoxicity assay, 72 h, Meso92. To be noted: exposure time 72 h. Format: cell-based, human.
From the text: Cell lines and culture conditions
Mouse malignant mesothelioma cancer cell line AB12, human nonmalignant mesothelioma cancer cell line Met5A (mesothelial cells), mouse macrophage cell line J774 and human monocytic cell line THP-1 were obtained from American Type Culture Collection (ATCC) (Rockville, MD, USA). Human malignant mesothelioma cell lines VMC23 (epithelial), Meso82 (sarcomatous), Meso92 (biphasic), were kindly provided by Prof. Walter Berger (Medical University of Vienna). All cells except for J774 were cultured in RPMI and J774 cells were cultured in DMEM. Both types of media were supplemented with 10% FBS and 1% penicillin-streptomycin (10,000 U/mL). Cells were grown in tissue culture flasks (75 cm2 and 25 cm2, SPL Life Sciences Co., Ltd., Korea). All cell lines were grown at 37 °C in a humidified atmosphere of 95% air and 5% CO 2 and passaged when they reached 80–90% confluency. All Au stock solutions were prepared in 1% DMSO in the respected medium, ensuring that cell viability was not inhibited. The Au concentration in the stock solutions was confirmed through inductively coupled plasma optical emission spectrometry. The stock solution of pemetrexed (10 mM) was prepared in Milli -Q water.
Inhibition of c ell viability assay
as §2, §3, §4
Data set [7] has as its system human nonmalignant mesothelioma cell line Met5A. In words: MTT cytotoxicity assay, 72 h, Met5A. Format: cell-based. To be noted: exposure time 72 h.
The subject of data set [8] is human malignant mesothelioma cell line JU77. Briefly: MTT cytotoxicity assay, 72 h, JU77. Format: cell-based. To be noted: exposure time 72 h.
From the text: as §1, §2, §3, §4
The subject of data set [9] is AB12 cells phagocytosed by J774 macrophages. In words: Phagocytosis assay, flow cytometry. The data set is classed as cell-based, mouse. To be noted: AB12 treated 100 min at 5 × IC50 (72 h), 16 h with J774 macrophages. As for the experimental part: page 21: incubated for an additional 50 min. Subsequently, the medium was aspirated, and the purple formazan crystals formed in viable cells were dissolved in DMSO (100 μL/well). Optical densities were measured at 570 nm using a BioTek Synergy H1 microplate and MultiskanTM SkyHigh plate readers. The quantity of viable cells was expressed in terms of treated/control (T/C) values in comparison to untreated control cells, and 50% inhibitory concentrations (IC 50) were calculated from concentration-effect curves by interpolation. An evaluation was based on means from at least three independent experiments, each comprising three […] concentration level. For macrophage analyses, the acute monocytic leukemia -derived THP-1 cell line (ATCC) was used as a model. 1 × 104 THP-1 cells were seeded per well in 96-well plates in RPMI-1640 with 10% FCS and treated for 24 h with 75 nM phorbol 12-myristate 13-acetate (PMA, Sigma- Aldrich) to induce M0 macrophage differentiation. After the differentiation period, PMA was replaced by fresh culture medium to recover for 2h. Afterwards increasing concentrations of 1G, 5A, 5B and 5G were added for a 72-h continuous drug exposure assay. In parallel, the […] were allowed to attach for 24 h. Gold compounds were added to the cells as described for the THP-1 model above. After the incubation period of 72 h, cell viability was determined by an MTT-based assay (EU4U, Biomedica) following the instructions of the manufacturer. DMSO had not impact on the cell viability at the concentrations used. Flow cytometry experiments Phagocytosis assay […] with RPMI, centrifuged (300 × g, 5 min) and labelled with CellTracker Red CMTPX Dye (0.72 μM for 5 × 10^5 cells) at 37°C for 30 minutes in 1 ml of serum -free RPMI. Following S21 page 22: centrifugation of the cells (300 × g, 5 min), 5 ml of fresh RPMI was introduced, and the cells were seeded at a density of 5 x 10^5 cells per well into Cellstar 6-well plates (Greiner Bio-One) (1 ml per well). J774 macrophages (70-80% confluence in a T75 flask) were detached by scraping, centrifuged (300 × g, 5 min). The medium was substituted with 1 ml of DMEM containing CellTracker Green CMFDA (1 μM) and the J774 macrophages were stained at 37°C for 30 minutes. Following centrifugation of the J774 macrophages (300 × g, 5 min), 5 ml of fresh DMEM was introduced, and the macrophages were seeded into a 100 cm2 petri dish (SPL Life Sciences, Korea). After 24 h, the media in AB12 cells was replaced with 1 ml of fresh […] for 100 minutes. After removing the drug-containing media, the cells were trypsinized (0.5 ml), neutralized with 1 ml of RPMI, centrifuged (300 × g, 5 min) and counted. From each sample, […] cells into 6-well plates. AB12 cells and J774 macrophages were co-incubated for 16 h at 37°C and 5% CO2, detached by scraping, centrifuged (300 × g, 5 min), and the pellets were resuspended in PBS for immediate analysis using a CytoFLEX Flow Cytometer (Beckman Coulter, USA). The percentage of phagocytosis was determined by calculating the number of double-positive macrophages (Q2) over the total number of macrophages (Q2 + Q3). […] Annexin V/PI assay AB12 cells were seeded into Cellstar 6-well plates (Greiner Bio-One) at a density of 5 × 10^5 cells/well (1 ml per well). […] The medium was removed and cells were washed with PBS (2 × 1 mL). Afterwards the cells were […] S22

A further data set concerns AB12 cells. Briefly: Annexin V/PI assay (necrosis), flow cytometry. The data set is classed as cell-based, mouse. As to conditions: AB12, 5 × IC50 (72 h), short exposure. The method, then:
centrifugation of the cells (300 × g, 5 min), 5 ml of fresh RPMI was introduced, and the cells were seeded at a density of 5 x 10^5 cells per well into Cellstar 6-well plates (Greiner Bio-One) (1 ml per well). J774 macrophages (70-80% confluence in a T75 flask) were detached by scraping, centrifuged (300 × g, 5 min). The medium was substituted with 1 ml of DMEM containing CellTracker Green CMFDA (1 μM) and the J774 macrophages were stained at 37°C for 30 minutes. Following centrifugation of the J774 macrophages (300 × g, 5 min), 5 ml of fresh DMEM was introduced, and the macrophages were seeded into a 100 cm2 petri dish (SPL Life Sciences, Korea). After 24 h, the media in AB12 cells was replaced with 1 ml of fresh RPMI containing compounds of interest at equipotent concentration of 5 × IC50 and incubated for 100 minutes. After removing the drug-containing media, the cells were trypsinized (0.5 ml), neutralized with 1 ml of RPMI, centrifuged (300 × g, 5 min) and counted. From each sample, 2 × 10^5 AB12 cells were seeded into Cellstar 6-well plates (Greiner Bio-One) (1 ml per well).
2 × 10^5 J774 macrophages were detached from a petri dish by scraping and added to AB12 cells into 6-well plates. AB12 cells and J774 macrophages were co-incubated for 16 h at 37°C and 5% CO2, detached by scraping, centrifuged (300 × g, 5 min), and the pellets were resuspended in PBS for immediate analysis using a CytoFLEX Flow Cytometer (Beckman Coulter, USA). The percentage of phagocytosis was determined by calculating the number of double-positive macrophages (Q2) over the total number of macrophages (Q2 + Q3). Dot plots […]
analysis of the flow cytometry data. […]
concentrations for 100 min at 37 °C. […] Cell death was evaluated by flow cytometry using a CytoFLEX Flow Cytometer equipped with a 488 nm laser and a 638 nm laser (Beckman Coulter, Brea, CA, USA). The cells were excited by the 488 nm laser, and fluorescence emissions were detected at 525/40 nm for FITC (Annexin V) and at 610/20 nm for ECD (PI).
The percentage of necrosis was determined by calculating the sum of cells in Q1 and Q2. […]
In general terms: Flow cytometry measures light scatter and fluorescence of single cells or particles in a stream.

For data set [10] the following is noted: determined from retention time using RP-HPLC.
The test system of a further data set is BALB/c mice. As to conditions: i.p., 12 injections, 5F 2.5 mg/kg.

On to `F[P-](F)(F)(F)(F)F.c1cc[c]2c(c1)-c1cccc[n+]1[Au-]21[S]C(=[N+]2CCCCCC2)[S]1` (centres unmarked) [1G], for which the IC50 in [1] is 500 ± 120 nM; in data set [3], 720 ± 140 nM; in data set [4] it was 500 ± 40 nM; in [5], 1100 ± 100 nM; in data set [6], 1400 ± 200 nM; in data set [7], 430 ± 90 nM. This compound also displayed an IC50 in data set [8] of 220 ± 30 nM. The “sensitivity of THP-1-derived macrophages” value in data set [2] is given as “highly sensitive”.

Consider `F[P-](F)(F)(F)(F)F.c1cc[c]2c(c1)-c1cccc[n+]1[Au-]21[S]C(=[N+]2CCCCC2)[S]1` (centres unmarked) [1H], for which the IC50 in data set [1] came to 370 ± 100 nM; in data set [3], 1400 ± 100 nM; in data set [4], 700 ± 90 nM; in data set [5], 91 ± 18 nM; in data set [6], 1100 ± 100 nM; in [7] it was 130 ± 30 nM. For the same compound, the IC50 in data set [8] came out at 620 ± 120 nM. Also, the “phagocytosis / ICD response (in words)” value in [9] is reported as “high levels of phagocytosis”. Moreover, the “necrotic cell death (in words)” value with AB12 cells is “did not result in significant necrotic cell death”. In data set [10], this compound yielded a LogP of 2.45.

`F[P-](F)(F)(F)(F)F.c1ccc(C[N+](Cc2ccccc2)=C2[S][Au-]3([S]2)[c]2ccccc2Cc2cccc[n+]23)cc1` (centres unmarked) [2D]: the IC50 amounted to 2200 ± 400 nM in data set [1]; 2400 ± 500 nM in data set [3]; 3000 ± 300 nM in [4]; 3900 ± 500 nM in [5]; 5400 ± 1300 nM in data set [6]; 2500 ± 400 nM in [7]. In [8], this compound displayed an IC50 of 2300 ± 700 nM. The “phagocytosis / ICD response (in words)” value in [9] is “high levels of phagocytosis”. Also, the “necrotic cell death (in words)” value in the data set on AB12 cells was “did not result in significant necrotic cell death”.

For `CC[N+](CC)=C1[S][Au-]2([S]1)[c]1ccccc1Nc1cccc[n+]12.F[P-](F)(F)(F)(F)F` (centres unmarked) [5B], the IC50 amounted to 240 ± 20 nM in [1]; 300 ± 90 nM in data set [3]; 63 ± 19 nM in data set [4]; 53 ± 2 nM in data set [5]; 210 ± 60 nM in data set [6]; 180 ± 50 nM in [7]. The same compound came in with an IC50 in data set [8] of 190 ± 50 nM. The “sensitivity of THP-1-derived macrophages” value in [2] is “highly sensitive”.

`F[P-](F)(F)(F)(F)F.c1cc[c]2c(c1)Nc1cccc[n+]1[Au-]21[S]C(=[N+]2CCCCC2)[S]1` (centres unmarked) [5H]: the IC50 in data set [1] stood at 440 ± 90 nM; in data set [3], 940 ± 270 nM; in [4], 100 ± 20 nM; in data set [5] it was 100 ± 10 nM; in data set [6], 820 ± 180 nM; in [7], 130 ± 10 nM. The IC50 in data set [8] worked out at 400 ± 90 nM. In addition, in the data set with BALB/c mice (5A and 5H 4 mg/kg), the “signs of toxicity, daily injections” value was “led to toxicity in mice”. Moreover, the “deaths, daily injections” value in the data set with BALB/c mice (5H 4 mg/kg) is recorded as “death of two mice”.

For orientation: IC50 means the concentration that gives 50% inhibition. One may read the LogP as a log measure of how a compound divides between an organic and an aqueous phase. Low readings indicate a more hydrophilic compound, high ones a more lipophilic compound.
